Measured values published in the NIST ThermoML archive (doi:10.1021/je900372v).
Several values for one entry are separate records, joined by “and”; a condition that tells them apart may be missing. Equal entries are not always repeated.

Conditions: Diaphragm manometer

[CH3][Sb]([CH3])[C](C)(C)C [tert-butyldimethylantimony]
Conditions	vapor or sublimation pressure
248.34 K, Crystal	0.03829 kPa and 0.03817 kPa and 0.03826 kPa
253.33 K, Crystal	0.05845 kPa and 0.05851 kPa and 0.05854 kPa
258.35 K, Crystal	0.08805 kPa and 0.08784 kPa and 0.08807 kPa
263.35 K, Crystal	0.1298 kPa and 0.1299 kPa
268.55 K, Crystal	0.1898 kPa and 0.19 kPa
273.4 K, Crystal	0.2687 kPa and 0.2685 kPa
278.29 K, Crystal	0.374 kPa and 0.3741 kPa
283.32 K, Crystal	0.5167 kPa and 0.5168 kPa and 0.5164 kPa
288.32 K, Liquid	0.7023 kPa and 0.7022 kPa
293.29 K, Liquid	0.9422 kPa and 0.9421 kPa and 0.942 kPa
298.29 K, Liquid	1.251 kPa
303.28 K, Liquid	1.642 kPa
308.27 K, Liquid	2.131 kPa and 2.132 kPa

[CH3][Sb]([CH3])[CH3] [trimethylstibine]
Liquid
Conditions	vapor or sublimation pressure
249.24 K	0.9742 kPa and 0.9744 kPa
250.24 K	1.042 kPa
251.23 K	1.113 kPa and 1.112 kPa
252.21 K	1.186 kPa
253.21 K	1.265 kPa and 1.264 kPa
258.19 K	1.73 kPa
263.24 K	2.345 kPa and 2.343 kPa
268.3 K	3.134 kPa and 3.136 kPa
273.35 K	4.143 kPa
278.36 K	5.398 kPa and 5.399 kPa and 5.395 kPa
283.33 K	6.941 kPa and 6.94 kPa and 6.938 kPa
288.27 K	8.822 kPa and 8.821 kPa
290.71 K	9.9 kPa and 9.899 kPa
293.24 K	11.13 kPa
296.22 K	12.74 kPa and 12.73 kPa
